Measured values as given in ChEMBL document CHEMBL4477208, “Discovery and Rational Design of Pteridin-7(8H)-one-Based Inhibitors Targeting FMS-like Tyrosine Kinase 3 (FLT3) and Its Mutants” (J Med Chem, 2016).

Columns and labels:
[1] = molecular target: Receptor-type tyrosine-protein kinase FLT3 (Homo sapiens, UniProt P36888, D835V); assay: Binding affinity to human partial length FLT3 D835V mutant (592 to 969 residues) expressed in mammalian expression system after 1 hr
[2] = system: MV4-11; assay: Induction of apoptosis in human MV4-11 cells assessed as necrotic cells at 1000 nM after 48 hrs by annexin V/propidium iodide staining based FACS analysis (reference value: 0.05%); assay type: functional
[3] = Half life in overnight fasted Sprague-Dawley rat plasma at 10 mg/kg administered via oral gavage up to 24 hrs by LC-MS/MS analysis; assay type: ADME, organism-based
[4] = Cmax in overnight fasted Sprague-Dawley rat plasma at 1 mg/kg, iv up to 24 hrs by LC-MS/MS analysis; assay type: ADME, organism-based; design: dose 1 mg/kg, route intravenous
[5] = system: MV4-11; assay: Cell cycle arrest in human MV4-11 cells assessed as cell debris level at 1000 nM after 48 hrs by PI/RNase staining based FACS analysis; assay type: functional
[6] = system: MV4-11; assay: Cell cycle arrest in human MV4-11 cells assessed as accumulation at S phase at 10 nM after 48 hrs by PI/RNase staining based FACS analysis (reference value: 16.50%); assay type: functional
[7] = system: RKO; assay: Antiproliferative activity against human RKO cells after 72 hrs by SRB assay; assay type: functional, cell-based
[8] = system: MV4-11; assay: Cell cycle arrest in human MV4-11 cells assessed as accumulation at G0/G1 phase at 100 nM after 48 hrs by PI/RNase staining based FACS analysis (reference value: 69.55%); assay type: functional
[9] = Half life in overnight fasted Sprague-Dawley rat plasma at 1 mg/kg, iv up to 24 hrs by LC-MS/MS analysis; assay type: ADME, organism-based
[10] = system: MV4-11; assay: Induction of apoptosis in human MV4-11 cells assessed as viable cells at 100 nM after 48 hrs by annexin V/propidium iodide staining based FACS analysis (reference value: 90.60%); assay type: functional; details: MV4-11, 48 h, read-out: Activity
[11] = system: MV4-11; assay: Induction of apoptosis in human MV4-11 cells assessed as viable cells at 10 nM after 48 hrs by annexin V/propidium iodide staining based FACS analysis (reference value: 90.60%); assay type: functional; details: MV4-11, 48 h, read-out: Activity
[12] = system: MV4-11; assay: Induction of apoptosis in human MV4-11 cells assessed as late apoptotic cells at 10000 nM after 48 hrs by annexin V/propidium iodide staining based FACS analysis (reference value: 3.01%); assay type: functional
[13] = molecular target: Dual specificity mitogen-activated protein kinase kinase 5 (Homo sapiens) (UniProt Q13163); assay: Inhibition of human MEK5 expressed in mammalian system assessed as remaining enzyme activity at 1 uM relative to untreated control
Sequence of Dual specificity mitogen-activated protein kinase kinase 5 (Homo sapiens) (Q13163 whole entry): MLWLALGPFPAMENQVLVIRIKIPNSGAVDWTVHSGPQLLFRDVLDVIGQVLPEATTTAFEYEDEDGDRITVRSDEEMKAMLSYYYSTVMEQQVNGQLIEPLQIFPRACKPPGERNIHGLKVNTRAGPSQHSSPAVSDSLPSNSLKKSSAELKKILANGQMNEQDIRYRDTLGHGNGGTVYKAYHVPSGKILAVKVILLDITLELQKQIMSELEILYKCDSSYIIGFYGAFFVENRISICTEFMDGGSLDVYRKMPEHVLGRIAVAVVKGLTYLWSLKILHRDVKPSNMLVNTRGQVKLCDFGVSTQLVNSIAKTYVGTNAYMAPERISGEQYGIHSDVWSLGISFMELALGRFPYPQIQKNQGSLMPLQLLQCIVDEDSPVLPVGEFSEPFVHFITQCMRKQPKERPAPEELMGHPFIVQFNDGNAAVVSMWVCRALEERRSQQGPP

[14] = Clearance in overnight fasted Sprague-Dawley rat plasma at 1 mg/kg, iv up to 24 hrs by LC-MS/MS analysis; assay type: ADME, organism-based
[15] = system: NCI-H187; assay: Antiproliferative activity against human NCI-H187 cells after 72 hrs by MTT assay; assay type: functional, cell-based; details: NCI-H187, 72 h
[16] = Oral bioavailability in overnight fasted Sprague-Dawley rat plasma at 10 mg/kg administered via oral gavage up to 24 hrs by LC-MS/MS analysis; assay type: ADME, organism-based
[17] = system: Receptor-type tyrosine-protein kinase FLT3 (Homo sapiens), P36888 [UNDEFINED MUTATION]; assay: Inhibition of human FLT3 ITD/F691L mutant expressed in mammalian system assessed as remaining enzyme activity at 1 uM relative to untreated control
[18] = molecular target: Receptor-type tyrosine-protein kinase FLT3 (Homo sapiens, UniProt P36888, ITD); assay: Binding affinity to human partial length FLT3 ITD mutant expressed in bacterial expression system after 1 hr
[19] = system: MV4-11; assay: Induction of apoptosis in human MV4-11 cells assessed as necrotic cells at 10 nM after 48 hrs by annexin V/propidium iodide staining based FACS analysis (reference value: 0.05%); assay type: functional
[20] = system: Receptor-type tyrosine-protein kinase FLT3 (Homo sapiens), P36888 [D835V]; assay: Inhibition of human FLT3 D835V mutant expressed in mammalian system assessed as remaining enzyme activity at 1 uM relative to untreated control
[21] = molecular target: Receptor-type tyrosine-protein kinase FLT3 (Homo sapiens) (UniProt P36888); assay: Inhibition of human FLT3 expressed in bacterial system assessed as remaining enzyme activity at 1 uM relative to untreated control
[22] = system: NCI-H1299; assay: Antiproliferative activity against human H1299 cells after 72 hrs by SRB assay; assay type: functional, cell-based; details: NCI-H1299, 72 h
[23] = system: MV4-11; assay: Cell cycle arrest in human MV4-11 cells assessed as accumulation at G2 phase at 10 nM after 48 hrs by PI/RNase staining based FACS analysis (reference value: 13.95%); assay type: functional
[24] = system: Receptor-type tyrosine-protein kinase FLT3 (Homo sapiens), P36888 [UNDEFINED MUTATION]; assay: Inhibition of human FLT3 ITD mutant expressed in bacterial system assessed as remaining enzyme activity at 1 uM relative to untreated control
[25] = system: MV4-11; assay: Antitumor activity against human MV4-11 cells xenografted in nude BALB/c mouse assessed as tumor growth inhibition at 25 mg/kg, ip qd for 14 days measured every 2 days; assay type: functional; details: MV4-11, ip, read-out: TGI
[26] = system: MV4-11; assay: animal or person; details: Mus musculus, MV4-11, po, read-out: TGI
Description: Antitumor activity against human MV4-11 cells xenografted in nude BALB/c mouse assessed as tumor growth inhibition at 10 mg/kg, po qd for 14 days measured every 2 days

[27] = system: SH-SY5Y; assay: Antiproliferative activity against human SH-SY5Y cells after 72 hrs by SRB assay; assay type: functional, cell-based
[28] = system: MV4-11; assay: Induction of apoptosis in human MV4-11 cells assessed as apoptotic cells after 48 hrs by annexin V/propidium iodide staining based FACS analysis; assay type: functional, cell-based
[29] = system: MOLM-13; assay: Antiproliferative activity against human MOLM13 cells harboring FLT3-ITD mutant after 72 hrs by MTT assay; assay type: functional, cell-based; details: MOLM-13, 72 h
[30] = system: MV4-11; assay: Cell cycle arrest in human MV4-11 cells assessed as accumulation at G0/G1 phase at 10 nM after 48 hrs by PI/RNase staining based FACS analysis (reference value: 69.55%); assay type: functional
[31] = system: MV4-11; assay: Cell cycle arrest in human MV4-11 cells assessed as accumulation at G0/G1 phase at 1 nM after 48 hrs by PI/RNase staining based FACS analysis (reference value: 69.55%); assay type: functional
[32] = molecular target: Macrophage colony-stimulating factor 1 receptor (Homo sapiens) (UniProt P07333); assay: Inhibition of human CSF1R expressed in bacterial system assessed as remaining enzyme activity at 1 uM relative to untreated control
Sequence of Macrophage colony-stimulating factor 1 receptor (Homo sapiens) (P07333 whole entry): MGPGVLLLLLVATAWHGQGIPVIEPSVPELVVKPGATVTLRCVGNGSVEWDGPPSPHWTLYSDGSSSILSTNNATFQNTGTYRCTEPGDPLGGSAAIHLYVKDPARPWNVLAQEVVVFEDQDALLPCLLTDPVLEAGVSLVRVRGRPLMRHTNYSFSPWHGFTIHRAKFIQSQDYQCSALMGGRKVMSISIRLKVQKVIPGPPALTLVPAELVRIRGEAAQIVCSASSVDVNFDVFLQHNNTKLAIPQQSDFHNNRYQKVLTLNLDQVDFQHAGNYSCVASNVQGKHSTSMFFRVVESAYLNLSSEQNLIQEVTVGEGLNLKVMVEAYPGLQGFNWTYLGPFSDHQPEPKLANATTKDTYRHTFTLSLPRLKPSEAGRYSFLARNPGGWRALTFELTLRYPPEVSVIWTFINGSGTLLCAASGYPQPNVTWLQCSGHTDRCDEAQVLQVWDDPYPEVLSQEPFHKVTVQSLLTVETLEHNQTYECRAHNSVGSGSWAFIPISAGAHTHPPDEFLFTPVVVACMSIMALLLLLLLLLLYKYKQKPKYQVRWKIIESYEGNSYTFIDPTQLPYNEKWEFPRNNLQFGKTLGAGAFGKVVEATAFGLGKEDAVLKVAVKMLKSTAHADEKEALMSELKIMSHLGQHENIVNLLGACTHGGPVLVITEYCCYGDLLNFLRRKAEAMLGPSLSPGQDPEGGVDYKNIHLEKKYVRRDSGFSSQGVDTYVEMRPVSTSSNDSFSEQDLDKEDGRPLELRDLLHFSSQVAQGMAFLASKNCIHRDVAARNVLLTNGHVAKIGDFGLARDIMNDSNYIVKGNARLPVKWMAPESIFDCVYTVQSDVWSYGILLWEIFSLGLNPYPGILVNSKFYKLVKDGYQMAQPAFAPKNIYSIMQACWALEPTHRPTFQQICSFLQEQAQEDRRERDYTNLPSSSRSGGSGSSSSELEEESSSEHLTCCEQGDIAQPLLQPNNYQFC

[33] = system: MV4-11; assay: Antiproliferative activity against human MV4-11 cells after 72 hrs by MTT assay; assay type: functional, cell-based; details: MV4-11, 72 h
[34] = system: MV4-11; assay: Induction of apoptosis in human MV4-11 cells assessed as dead cells after 48 hrs by annexin V/propidium iodide staining based FACS analysis; assay type: functional, cell-based
[35] = system: MV4-11; assay: Cell cycle arrest in human MV4-11 cells assessed as accumulation at subG1 phase at 100 nM after 48 hrs by PI/RNase staining based FACS analysis (reference value: 0%); assay type: functional
[36] = system: HCT-116; assay: Antiproliferative activity against human HCT116 cells after 72 hrs by SRB assay; assay type: functional, cell-based; details: HCT-116, 72 h
[37] = system: MV4-11; assay: Antitumor activity against human MV4-11 cells xenografted in nude BALB/c mouse assessed as tumor growth inhibition at 50 mg/kg, po qd for 14 days measured every 2 days; assay type: functional; details: MV4-11, po, read-out: TGI

Cc1cc(Nc2ncc3ncc(=O)n(-c4ccc(N)cc4)c3n2)ccc1N1CCN(C)CC1
Kd [1]: 0.25 nM
Activity [2]: 0.05%
half-life [3]: 4.49 h
Cmax [4]: 55.2 ng/mL
Activity [5]: 16.38%
Activity [6]: 18.4%
IC50 [7]: 1930 nM
Activity [8]: 85.92%
half-life [9]: 3.11 h
viability at 0.1 µM [10]: 60.3%
viability at 0.01 µM [11]: 86.9%
Activity [12]: 31.3%
Activity [13]: < 1%
clearance [14]: 142 mL/min/kg
IC50 [15]: > 10000 nM
bioavailability [16]: 26.4%
Activity [17]: < 1%
Kd [18]: 6.9 nM
Activity [19]: 0.01%
Activity [20]: < 1%
Activity [21]: < 1%
IC50 [22]: 4880 nM
Activity [23]: 11.4%
Activity [24]: < 1%
inhibition in vivo at 25 mg/kg [25]: 129%
inhibition in vivo at 10 mg/kg [26]: 28%
IC50 [27]: 5570 nM
Activity [28]: Dose-dependent effect
IC50 [29]: 32.9 nM
Activity [30]: 70.2%
Activity [31]: 65.64%
Activity [32]: < 1%
IC50 [33]: 51 nM
Activity [34]: Dose-dependent effect
Activity [35]: 12%
IC50 [36]: 2360 nM
inhibition in vivo at 50 mg/kg [37]: 128%
